Source: ChEMBL document CHEMBL1201862, “PubChem BioAssay data set” (2004)
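Each compound was tested at five concentrations against cells in 96-well plates for 48 hours. GI50: concentration for 50% inhibition of growth.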 Activity calls are given as the source filed them. Rule as the data show it: active = GI50 up to about 1.1 µM and inactive = higher.

How the values were obtained:
Assay in all cases: inhibition of tumour cell growth, NCI panel, 48 h
TK-10 = test system: TK-10
SN12C = test system: SN12C
SK-OV-3 = test system: SK-OV-3
MDA-N = test system: MDA-N
KM12 = test system: KM12
NCI-H522 = test system: NCI-H522
OVCAR-8 = test system: OVCAR-8
HL-60 = test system: HL-60
MDA-MB-435 = test system: MDA-MB-435
NCI-H226 = test system: NCI-H226
PC-3 = test system: PC-3
LOX IMVI = test system: LOX IMVI
OVCAR-3 = test system: OVCAR-3
EKVX = test system: EKVX
IGROV-1 = test system: IGROV-1
SNB-19 = test system: SNB-19
HOP-62 = test system: HOP-62
SK-MEL-5 = test system: SK-MEL-5
SF-539 = test system: SF-539
DU-145 = test system: DU-145

Measured: GI50

O=Cc1coc2ccccc2c1=O
inactive: TK-10 17.7 µM | SN12C 19.5 µM | SK-OV-3 20 µM | MDA-N 20.5 µM | KM12 24.2 µM | NCI-H522 19.1 µM | OVCAR-8 15 µM | HL-60 18.6 µM | MDA-MB-435 18.5 µM | NCI-H226 37.7 µM | PC-3 18.8 µM | LOX IMVI 16.9 µM | OVCAR-3 32.1 µM | EKVX 22.4 µM | IGROV-1 15.7 µM | SNB-19 24.6 µM | HOP-62 19.1 µM | SK-MEL-5 17.8 µM | SF-539 16.1 µM | DU-145 40.6 µM

O=C1C(=Cc2ccccc2[N+](=O)[O-])N=C(c2ccccc2)N1n1c(-c2ccccc2)nc2ccccc2c1=O
inactive: TK-10 > 100 µM | SN12C 23 µM | SK-OV-3 40.7 µM | MDA-N 36.4 µM | KM12 26.9 µM | NCI-H522 17 µM | OVCAR-8 24.7 µM | HL-60 > 10 µM | MDA-MB-435 32.4 µM | NCI-H226 32.5 µM | PC-3 27.3 µM | LOX IMVI 29.4 µM | OVCAR-3 29 µM | EKVX 33.4 µM | IGROV-1 32.2 µM | SNB-19 35.3 µM | HOP-62 28.6 µM | SK-MEL-5 31.5 µM | SF-539 25.8 µM | DU-145 33.5 µM

O=C(SCc1cccc2ccccc12)c1ccc(Cl)cc1
inactive: TK-10 > 100 µM | SN12C > 100 µM | SK-OV-3 > 100 µM | MDA-N > 100 µM | KM12 > 100 µM | NCI-H522 45.8 µM | OVCAR-8 > 100 µM | HL-60 48.5 µM | MDA-MB-435 97.1 µM | NCI-H226 > 100 µM | PC-3 > 100 µM | LOX IMVI > 100 µM | OVCAR-3 44.4 µM | EKVX 80 µM | IGROV-1 > 100 µM | SNB-19 > 100 µM | HOP-62 > 100 µM | SK-MEL-5 45.2 µM | SF-539 > 100 µM | DU-145 > 100 µM

COc1cc2c(C)cc(O)cc2c2cc(O)c(C)cc12
inactive: TK-10 13.3 µM | SN12C 9.84 µM | SK-OV-3 12.9 µM | MDA-N 10.2 µM | KM12 5.24 µM | NCI-H522 13.7 µM | OVCAR-8 14.4 µM | HL-60 2.96 µM | MDA-MB-435 9.75 µM | NCI-H226 13.5 µM | PC-3 9.57 µM | LOX IMVI 2.23 µM | OVCAR-3 12 µM | EKVX 11.7 µM | IGROV-1 14.1 µM | SNB-19 11.5 µM | HOP-62 5.57 µM | SK-MEL-5 10.5 µM | SF-539 9.14 µM | DU-145 10.9 µM
